# Measurements from patent US9901637B2, “Vitamin D3 and analogs thereof for treating alopecia” (priority 2009, dated 2018).
# Where two headings read alike, the source gives them in different places.
# How the values were obtained:
# [1] = Preliminary animal toxicology study; format: in vivo; conditions: dose of about 100 μg
# [2] = system: SkBr-3 (breast adenocarcinoma cancer, Her2 overexpressed); assay: Cell growth/viability assay, calcitriol with or without chemotherapy drug; format: cell-based
# [3] = system: PaCa2 (pancreatic carcinoma); assay: as above; format: cell-based
# [4] = system: NIH-3T3 (immortalized fibroblast); assay: as above; format: cell-based
# HEKa cells [5] = assay: Pretreatment of cells with calcitriol, cell viability assay with chemotherapy drugs; format: cell-based, human
# Excerpt: Then these pretreated cells were utilized to set up the cell-based assay. […] The four cancer cell lines continued to grow and were not altered in their general morphological appearances. […] For this cell line, a new batch of cells were started and were exposed to only a single passage in the presence of calcitriol, prior to testing in the presence of the chemotherapy drugs. Three commonly used chemotherapy drugs (doxorubicin, cisplatin and erlotinib) were selected to evaluate calcitriol treated cells. […] In these experiments, the commercial drugs were serially diluted, starting at a concentration 4-times higher than the final desired concentration for cell incubation. […] The assay was carried out according to the previously described method in order to provide consistency and allow direct comparison. The result was based upon measurement of the total number of viable cells. […] Thus, a topical application of calcitriol could be applied at the same time as the systemic delivery of the chemotherapy. A staged application is not required.
# NCI-ES-0808 = assay: Cell growth/viability assay, calcitriol with or without chemotherapy drug; format: cell-based
# [6] = system: MCF-7 (breast cancer with p53 mutation); assay: as above; format: cell-based
# HEKa cells [7] = assay: Protective effect of calcitriol on HEKa cells against chemotherapeutic drugs; format: cell-based, human; conditions: 0.1 μg/mL calcitriol
# Experimental: These include: erlotinib (Tarceva), an EGFR Tyr kinase inhibitor; gefutubib (Iressa), an EGFR Tyr kinase inhibitor; sorafenib, inhibitor of several Tyr kinases (Raf, VEGF-R2, c-kit, PDGR-R); Dasatinib, a BCR/ABL Tyr kinase inhibitor; and staurosporin, a relatively nonspecific kinase inhibitor.
# The drug treatment period was usually three days. At the end of the three days, the background OD of the 96-well plate was read at 280 nm, before 20 μL of the “Substrate Cell Titer 96 Aqueous One Solution Reagent” (Promega) was added to each well. The plate was returned to the 37° C. incubator, and its OD at 490 nm was read each hour until an OD of approximately 1.5 was reached. The net OD increase was calculated by subtracting the pre-substrate OD reading.
# The impact of the drug on the cells was calculated by comparing the OD at different concentrations in relation to the OD of the control wells (without the drug).
# in vivo = conditions: Gottingen, minipig, topical
# Excerpt: At the end of the study, the skin was reflected from a ventral midline incision, and sections of treated and untreated skin were collected and preserved. Sections of each 6×6 cm dosing site were first thoroughly surface washed with a mild soap and water mixture (e.g., 1% Ivory Soap in water or equivalent) to remove any residual topical test formulation. The washed skin sections were then wiped clean with ethanol, and were excised down to and including the adipose layer. If the area to be excised is larger than the dosed area, the dosed area was demarked with indelible ink to delineate the skin area that was dosed. The 1.5 cm×1.5 cm sections were laid flat, wrapped in two layers of Saran wrap (or equivalent) and flash frozen in liquid nitrogen. The samples were stored at −70° C. and shipped on dry ice via overnight courier for analysis. Each skin section was identified as appropriate (e.g., animal identification, study number, date, etc).
# Upon arrival at the analysis site, skin sections were placed in water tight plastic bag and thawed by emersion in warm water (˜30° C.-35° C.). Each skin section was gently rinsed with distilled de-ionized water to remove any residual test article and blood. All subcutaneous tissue (e.g., adipose) was removed by manual scalpel ablation. Within the central region of the dosed area, four individual 1 cm^2 circles (replicates) were demarked, and each site was subsequently identified and the actual area recorded. The replicate test sites were then excised from the skin sheet using a 1 cm^2 punch. The skin sections were weighed and the weight recorded. […] This process removed the stratum corneum and any residual surface dose.
# Following tape stripping, the skin was separated into epidermis (sans stratum corneum, simply referred to herein after as “epidermis”) and dermis by heat exposure to 60° C. for approximately 1-1.5 minutes. The skin layers were then teased apart using fine-tipped forceps or scalpel. The epidermis and dermis were weighed and the weight recorded.
# For extraction, all skin samples were extracted in 1 mL of absolute ethanol (Sigma-Aldrich, USP/NF Grade). Tape strips were extracted in 5 mL acetonitrile (EMD, HPLC Grade). All extractions were conducted at room temperature for approximately 24 hours. An amount of 500 μL of the tape strip extract was dried by vacuum centrifugation and reconstituted in 100 μL absolute acetonitrile. The epidermal extract was also dried and reconstituted in 100 μL 80:20 ethanol:water.
# Lower limit of detection is estimated at 0.4 ng/mL.
# However, the concentration reported, as μg/mg, is determined by the differential total sample weight before layer separation minus the weights of the epidermis and dermis for that sample (rather than by actual weight due to its adherence to the tape strips). Epidermal and dermal samples are reported as tissue concentration (ng/mg) using the amount measured from the sample divided by actual wet weight of the skin layer.
# [8] = system: MIAC51 (chloroleukemia cells); assay: Rats transplanted with chloroleukemia: protection of cancer cells from chemotherapy; format: in vivo; conditions: Long Evans rats injected with MIAC51, cyclophosphamide; preliminary results
# Experimental: For experiments in which rats were transplanted with chloroleukemia, on Day 5 after birth, rats were randomly divided into three groups of 45 each. All rats received 1×10^5 chloroleukemic cell line MIAC51 (i.p.) in 0.1 mL of serum free (SF) RPMI. MIAC51 were cultured in RPMI 1640 supplemented with L-glutamine and 10% fetal bovine serum at 37° C. in a 5% CO2, 100% humidity incubator. Cells were grown to 50% confluency (1.5×106 mL) collected in 50 mL conical tubes, centrifuged at 600 g×10 min. at room temperature and resuspended in SF-RPMI at a concentration of 1×10^6/mL. Group 1 rats received no further treatment. Group 2 rats received topical vehicle and CTX on day 13. […] Topical applications were performed as described above.
# On day 23 after birth, a sample of blood was taken from all rats and differentials performed. Rats with leukemia were sacrificed, rats without leukemia were kept and a second differential performed on day 31, at any point if leukemia was detected, animals were sacrificed by CO2 asphyxiation.
structure (smiles),measurement,setting,value
"C=C1/C(=C\C=C2/CCC[C@]3(C)[C@@H]([C@H](C)CCCC(C)(C)O)CC[C@@H]23)C[C@@H](O)C[C@@H]1O [Calcitriol, 1,25-dihydroxyvitamin D3]",dermal irritation,[1],no dermal irritation
same,skin penetration,[1],excellent epidermal penetration without substantial dermal penetration
same,effect of calcitriol on cell growth,[2],no significant growth promoting or growth inhibiting effects
same,effect on the cytotoxic effect of Doxorubicin,[2],did not appear to appreciably alter
same,effect of calcitriol on cell growth,[3]; PaCa2,no significant growth promoting or growth inhibiting effects
same,effect on the cytotoxic effect of Doxorubicin,[3]; PaCa-2,did not appear to appreciably alter
same,5-FU ED50 curve with versus without calcitriol,"[3]; PaCa-2, 0.1 μg/mL calcitriol",not significantly different
same,"response to other drugs (doxorubucin, cisplatin, erlotinib) after calcitriol exposure","[3]; PaCa-2, 0.1 μg/mL calcitriol for two passages",did not alter
same,effect of calcitriol on cell growth,[4],no significant growth promoting or growth inhibiting effects
same,effect on the cytotoxic effect of Doxorubicin,[4],did not appear to appreciably alter
same,growth of HEKa cells after prolonged calcitriol exposure,HEKa cells [5]; 0.1 μg/mL calcitriol for two cell passages,stopped growing
same,"chemoprotective effect, pre-treatment group versus simultaneous treatment group","HEKa cells [5]; 0.1 μg/mL calcitriol, doxorubicin, cisplatin, erlotinib",nearly identical
same,effect of calcitriol on cell growth,NCI-ES-0808,no significant growth promoting or growth inhibiting effects
same,effect on the cytotoxic effect of Doxorubicin,NCI-ES-0808,did not appear to appreciably alter
same,concentrations giving calcitriol growth inhibition,[6]; MCF-7,> 0.5 µg/mL
same,concentrations giving calcitriol growth stimulation,[6]; MCF-7,0.05 to 0.25 µg/mL
same,effect on the cytotoxic effect of Doxorubicin,[6]; MCF-7,did not appear to appreciably alter
same,"response to other drugs (doxorubucin, cisplatin, erlotinib) after calcitriol exposure","[6]; MCF-7, 0.1 μg/mL calcitriol for two passages",did not alter
same,protective effect against 5-FU,HEKa cells [7],mild protective effect
same,protective effect against Paxlitaxol (paclitaxel),HEKa cells [7],some protective effects
same,protective effect against gemcitabine,HEKa cells [7],mild protective effect
same,protective effect against irinotecan,HEKa cells [7],positive protective effect
same,protective effect against tamoxifen,HEKa cells [7],weak
same,protective effect against the cytotoxic effect of doxorubicin,HEKa cells [7],did not appear to provide a significant protective effect
same,protection against alkylating agents cisplatin and carboplatin,HEKa cells [7]; low dosage levels,moderate level of protection
same,"protective effect against kinase inhibitor drugs (erlotinib, gefitinib, sorafenib, dasatinib, staurosporin)",HEKa cells [7]; low drug dosage levels,protected the HEKa cells
same,"Stratum Corneum, Calcitriol Recovered, Mean ± SD","Female Minipigs, 1 μg/mL dermal twice daily 7 days",0.76 ± 1.3 (3) ng/cm2
same,"Stratum Corneum, Calcitriol Recovered, Mean ± SD","Female Minipigs, 3 μg/mL dermal twice daily 7 days",1.12 ± 1.49(3) ng/cm2
same,"Stratum Corneum, Calcitriol Recovered, Mean ± SD","Female Minipigs, 10 μg/mL dermal twice daily 7 days",1.65 ± 1.80 (3) ng/cm2
same,"Stratum Corneum, Calcitriol Recovered, Mean ± SD","Female Minipigs, 30 μg/mL dermal twice daily 7 days",20.2 ± 11.7 (3) ng/cm2
same,"Stratum Corneum, Calcitriol Recovered, Mean ± SD","Male Minipigs (1 animal), 100 μg/mL dermal twice daily 7 days",118.1 ± 11.4 (1) ng/cm2
same,"Stratum Corneum, Calcitriol Recovered, Mean ± SD","Male Minipigs, 1 μg/mL dermal twice daily 7 days",56.1 ± 17.4 (3) ng/cm2
same,"Stratum Corneum, Calcitriol Recovered, Mean ± SD","Male Minipigs, 3 μg/mL dermal twice daily 7 days",62.4 ± 7.91 (3) ng/cm2
same,"Stratum Corneum, Calcitriol Recovered, Mean ± SD","Male Minipigs, 10 μg/mL dermal twice daily 7 days",59.6 ± 14.1 (3) ng/cm2
same,"Stratum Corneum, Calcitriol Recovered, Mean ± SD","Male Minipigs, 30 μg/mL dermal twice daily 7 days",54.6 ± 32.5 (3) ng/cm2
same,applied dose correlation to tissue level in the epidermis,"minipigs, calcitriol concentrations from 3 to 100 μg/mL",near linear increase
same,concentration at 7 days,"in vivo; female, stratum corneum (tape strips), 1 μg/mL",30 ± 50 ng/g
same,concentration at 7 days,"in vivo; female, stratum corneum (tape strips), 3 μg/mL",40 ± 60 ng/g
same,concentration at 7 days,"in vivo; female, stratum corneum (tape strips), 10 μg/mL",50 ± 40 ng/g
same,concentration at 7 days,"in vivo; female, stratum corneum (tape strips), 30 μg/mL",640 ± 370 ng/g
same,concentration at 7 days,"in vivo; female, 1 μg/mL",0 ng/g
same,concentration at 7 days,"in vivo; female, 3 μg/mL",0 ng/g
same,concentration at 7 days,"in vivo; male, stratum corneum (tape strips), 1 μg/mL",1540 ± 790 ng/g
same,concentration at 7 days,"in vivo; male, stratum corneum (tape strips), 3 μg/mL",1630 ± 250 ng/g
same,concentration at 7 days,"in vivo; male, stratum corneum (tape strips), 10 μg/mL",2020 ± 390 ng/g
same,concentration at 7 days,"in vivo; male, stratum corneum (tape strips), 30 μg/mL",1510 ± 890 ng/g
same,concentration at 7 days,"in vivo; male, stratum corneum (tape strips), 100 μg/mL",4520 ± 1210 ng/g
same,protection of the cancer cells from chemotherapy by topical calcitriol,[8],have not shown protection of the cancer cells
